Experimental data as given in paper PMC8474115 (Journal of Medicinal Chemistry, 2021).
Counter-ions that a name gives are not always drawn. Like-named read-outs stand apart in the source and are kept apart here.

Key:
[1] = target: T1, COX-2 (Homo sapiens, UniProt P35354); assay: Eurofins SafetyScreen panel; type: biochemical
T1 construct: Eurofins

[2] = target: T2, Cathepsin G (Homo sapiens, UniProt P08311); assay: Eurofins SafetyScreen panel; type: biochemical
T2 construct: Eurofins

[3] = target: T3, Protein Tyr Kinase, LCK (Homo sapiens, UniProt P06239); assay: Eurofins SafetyScreen panel; type: biochemical
T3 construct: Eurofins (contract screening, SafetyScreen panel) PP223

[4] = target: T4, Adrenergic α1A (Rattus norvegicus, UniProt P43140); assay: Eurofins SafetyScreen panel; type: binding
T4 construct: Eurofins (contract screening, SafetyScreen panel) PP223

[5] = target: T5, Adrenergic α1D (Homo sapiens, UniProt P25100); assay: Eurofins SafetyScreen panel; type: binding
T5 construct: Eurofins (contract screening, SafetyScreen panel) PP223
T5 sequence (P25100 whole entry): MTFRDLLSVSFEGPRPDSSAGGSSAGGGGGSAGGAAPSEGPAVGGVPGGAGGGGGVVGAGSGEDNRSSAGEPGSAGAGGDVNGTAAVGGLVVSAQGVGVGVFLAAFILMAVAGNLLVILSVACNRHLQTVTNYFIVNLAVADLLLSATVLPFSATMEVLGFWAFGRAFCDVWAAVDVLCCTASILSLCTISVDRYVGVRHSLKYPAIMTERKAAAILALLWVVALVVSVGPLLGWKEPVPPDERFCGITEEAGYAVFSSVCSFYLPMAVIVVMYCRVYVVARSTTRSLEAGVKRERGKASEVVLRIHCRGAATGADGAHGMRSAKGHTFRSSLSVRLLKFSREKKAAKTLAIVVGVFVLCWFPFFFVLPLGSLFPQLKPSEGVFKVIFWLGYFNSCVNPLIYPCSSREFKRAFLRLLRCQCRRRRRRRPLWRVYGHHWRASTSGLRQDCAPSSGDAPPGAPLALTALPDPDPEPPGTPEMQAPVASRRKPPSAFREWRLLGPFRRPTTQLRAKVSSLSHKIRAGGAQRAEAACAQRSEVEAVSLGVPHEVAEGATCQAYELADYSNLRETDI

[6] = target: T6, Adrenergic α2A (Homo sapiens, UniProt P08913); assay: Eurofins SafetyScreen panel; type: binding
T6 construct: Eurofins (contract screening, SafetyScreen panel) PP223
T6 sequence (P08913 1-465): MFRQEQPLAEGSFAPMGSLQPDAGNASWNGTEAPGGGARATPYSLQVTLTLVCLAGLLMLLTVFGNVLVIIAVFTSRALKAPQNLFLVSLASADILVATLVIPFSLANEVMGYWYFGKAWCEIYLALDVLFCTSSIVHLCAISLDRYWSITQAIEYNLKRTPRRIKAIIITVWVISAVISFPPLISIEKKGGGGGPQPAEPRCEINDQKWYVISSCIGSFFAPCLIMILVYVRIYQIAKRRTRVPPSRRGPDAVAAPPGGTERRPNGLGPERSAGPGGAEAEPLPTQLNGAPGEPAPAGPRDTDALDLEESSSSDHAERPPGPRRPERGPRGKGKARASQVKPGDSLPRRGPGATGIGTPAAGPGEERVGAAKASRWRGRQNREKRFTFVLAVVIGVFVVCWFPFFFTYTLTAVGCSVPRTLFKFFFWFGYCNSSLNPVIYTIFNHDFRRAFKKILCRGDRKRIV

[7] = target: T7, Bradykinin B2 (Homo sapiens, UniProt P30411); assay: Eurofins SafetyScreen panel; type: binding
T7 construct: Eurofins (contract screening, SafetyScreen panel) PP223

[8] = target: Ca Channel L-Type, Phenylalkylamine (Rattus norvegicus, UniProt P22002); assay: Eurofins SafetyScreen panel; type: binding
Chain of Ca Channel L-Type, Phenylalkylamine (P22002 whole entry): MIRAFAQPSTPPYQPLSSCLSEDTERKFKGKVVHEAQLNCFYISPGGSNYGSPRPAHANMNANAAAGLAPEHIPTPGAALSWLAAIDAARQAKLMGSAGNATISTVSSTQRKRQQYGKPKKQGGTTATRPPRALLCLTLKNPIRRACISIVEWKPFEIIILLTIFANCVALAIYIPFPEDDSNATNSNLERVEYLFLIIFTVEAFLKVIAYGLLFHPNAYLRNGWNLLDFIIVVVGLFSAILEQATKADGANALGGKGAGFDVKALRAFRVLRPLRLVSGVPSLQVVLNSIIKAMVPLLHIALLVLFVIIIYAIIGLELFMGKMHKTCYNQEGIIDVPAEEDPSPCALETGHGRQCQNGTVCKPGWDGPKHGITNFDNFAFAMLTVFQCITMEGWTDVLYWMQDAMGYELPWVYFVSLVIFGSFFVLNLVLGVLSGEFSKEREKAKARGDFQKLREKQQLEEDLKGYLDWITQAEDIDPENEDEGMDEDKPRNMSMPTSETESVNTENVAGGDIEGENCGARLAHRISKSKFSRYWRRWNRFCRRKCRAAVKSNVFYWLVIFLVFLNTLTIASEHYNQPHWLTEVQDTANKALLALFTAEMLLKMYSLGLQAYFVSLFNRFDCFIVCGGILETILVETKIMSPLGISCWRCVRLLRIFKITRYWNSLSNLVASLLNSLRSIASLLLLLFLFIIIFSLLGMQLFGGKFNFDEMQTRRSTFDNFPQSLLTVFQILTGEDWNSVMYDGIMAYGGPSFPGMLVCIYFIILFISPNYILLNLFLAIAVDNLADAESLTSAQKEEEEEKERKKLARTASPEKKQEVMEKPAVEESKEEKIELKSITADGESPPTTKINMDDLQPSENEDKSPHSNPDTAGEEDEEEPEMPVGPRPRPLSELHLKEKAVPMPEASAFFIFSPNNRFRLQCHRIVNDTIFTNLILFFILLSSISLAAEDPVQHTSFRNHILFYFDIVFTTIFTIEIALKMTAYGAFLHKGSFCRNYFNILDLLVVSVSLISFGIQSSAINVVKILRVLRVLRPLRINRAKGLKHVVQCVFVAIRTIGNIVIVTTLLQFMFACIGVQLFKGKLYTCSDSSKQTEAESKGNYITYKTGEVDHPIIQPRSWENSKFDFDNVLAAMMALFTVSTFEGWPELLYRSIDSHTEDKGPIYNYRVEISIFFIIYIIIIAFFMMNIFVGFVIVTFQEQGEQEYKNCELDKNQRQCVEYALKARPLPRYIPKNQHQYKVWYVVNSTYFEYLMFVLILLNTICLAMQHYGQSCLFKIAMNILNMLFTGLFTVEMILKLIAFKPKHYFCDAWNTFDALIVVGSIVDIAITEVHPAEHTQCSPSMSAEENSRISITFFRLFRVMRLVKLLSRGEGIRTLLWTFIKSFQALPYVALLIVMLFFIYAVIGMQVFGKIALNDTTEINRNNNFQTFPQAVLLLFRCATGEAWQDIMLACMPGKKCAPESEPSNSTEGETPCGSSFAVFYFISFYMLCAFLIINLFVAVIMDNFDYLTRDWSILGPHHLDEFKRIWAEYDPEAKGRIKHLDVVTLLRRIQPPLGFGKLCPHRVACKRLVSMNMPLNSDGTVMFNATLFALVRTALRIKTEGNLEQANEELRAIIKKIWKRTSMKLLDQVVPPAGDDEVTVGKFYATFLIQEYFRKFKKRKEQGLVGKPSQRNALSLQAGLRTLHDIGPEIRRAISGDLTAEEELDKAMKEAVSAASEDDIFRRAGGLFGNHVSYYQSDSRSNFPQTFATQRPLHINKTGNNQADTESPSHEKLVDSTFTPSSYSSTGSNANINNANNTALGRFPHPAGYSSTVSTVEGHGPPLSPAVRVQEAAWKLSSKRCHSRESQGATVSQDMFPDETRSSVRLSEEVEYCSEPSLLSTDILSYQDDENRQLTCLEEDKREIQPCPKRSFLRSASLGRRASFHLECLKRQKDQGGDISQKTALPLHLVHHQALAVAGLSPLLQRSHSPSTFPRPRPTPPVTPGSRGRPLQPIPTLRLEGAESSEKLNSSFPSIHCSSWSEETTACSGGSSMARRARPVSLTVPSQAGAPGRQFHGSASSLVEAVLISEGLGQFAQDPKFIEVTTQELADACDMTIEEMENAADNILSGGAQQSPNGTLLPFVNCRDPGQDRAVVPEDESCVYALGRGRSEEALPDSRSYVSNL

[9] = target: T8, Chemokine CCR2 (IL-8RB) (Homo sapiens, UniProt P25025); assay: Eurofins SafetyScreen panel; type: binding; conditions: read-out: %inh
T8 construct: purchased Eurofins (Panlabs) SafetyScreen87 Panel

[10] = target: T9, Dopamine D2S (Homo sapiens, UniProt P14416); assay: Eurofins SafetyScreen panel; type: binding
T9 construct: purchased Eurofins (Panlabs) SafetyScreen87 Panel

[11] = target: T10, Endothelin ETA (Homo sapiens, UniProt P25101); assay: Eurofins SafetyScreen panel; type: binding
T10 construct: purchased Eurofins (Panlabs) SafetyScreen87 Panel
T10 sequence (P25101 21-427): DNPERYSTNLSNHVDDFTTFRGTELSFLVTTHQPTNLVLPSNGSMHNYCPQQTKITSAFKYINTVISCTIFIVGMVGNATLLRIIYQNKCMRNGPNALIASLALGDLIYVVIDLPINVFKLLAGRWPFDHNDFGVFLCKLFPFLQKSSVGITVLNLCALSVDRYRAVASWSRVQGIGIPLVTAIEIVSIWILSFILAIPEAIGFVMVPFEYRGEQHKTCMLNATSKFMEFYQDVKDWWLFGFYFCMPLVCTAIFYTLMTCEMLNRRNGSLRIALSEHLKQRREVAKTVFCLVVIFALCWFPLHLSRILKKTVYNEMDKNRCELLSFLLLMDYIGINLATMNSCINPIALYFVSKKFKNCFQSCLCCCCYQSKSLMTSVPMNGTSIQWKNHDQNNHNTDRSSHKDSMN

[12] = target: Glutamate NMDA, Glycine (Rattus norvegicus, UniProt P35439); assay: Eurofins SafetyScreen panel; type: binding
[13] = target: T11, Histamine H1 (Homo sapiens, UniProt P35367); assay: Eurofins SafetyScreen panel; type: binding
T11 construct: Eurofins (contract screening, SafetyScreen panel) PP223
T11 sequence (P35367 whole entry): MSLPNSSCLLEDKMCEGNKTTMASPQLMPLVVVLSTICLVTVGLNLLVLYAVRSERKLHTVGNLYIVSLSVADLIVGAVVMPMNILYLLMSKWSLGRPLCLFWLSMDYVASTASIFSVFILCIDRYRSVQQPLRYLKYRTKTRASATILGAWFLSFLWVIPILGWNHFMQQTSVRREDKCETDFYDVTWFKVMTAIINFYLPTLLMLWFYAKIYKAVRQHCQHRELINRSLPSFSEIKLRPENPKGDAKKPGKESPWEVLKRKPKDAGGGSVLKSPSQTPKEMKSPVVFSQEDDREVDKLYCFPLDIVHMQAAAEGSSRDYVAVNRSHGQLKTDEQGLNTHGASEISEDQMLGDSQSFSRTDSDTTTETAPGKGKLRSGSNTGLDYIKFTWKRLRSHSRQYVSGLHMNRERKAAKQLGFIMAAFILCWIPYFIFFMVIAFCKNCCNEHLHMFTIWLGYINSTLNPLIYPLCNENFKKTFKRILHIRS

[14] = target: T12, Melanocortin MC1 (Homo sapiens, UniProt Q01726); assay: Eurofins SafetyScreen panel; type: binding
T12 construct: purchased Eurofins (Panlabs) SafetyScreen87 Panel

[15] = target: T13, Muscarinic M1 (Homo sapiens, UniProt P11229); assay: Eurofins SafetyScreen panel; type: binding
T13 construct: Eurofins (contract screening, SafetyScreen panel) PP223
T13 sequence (P11229 1-460): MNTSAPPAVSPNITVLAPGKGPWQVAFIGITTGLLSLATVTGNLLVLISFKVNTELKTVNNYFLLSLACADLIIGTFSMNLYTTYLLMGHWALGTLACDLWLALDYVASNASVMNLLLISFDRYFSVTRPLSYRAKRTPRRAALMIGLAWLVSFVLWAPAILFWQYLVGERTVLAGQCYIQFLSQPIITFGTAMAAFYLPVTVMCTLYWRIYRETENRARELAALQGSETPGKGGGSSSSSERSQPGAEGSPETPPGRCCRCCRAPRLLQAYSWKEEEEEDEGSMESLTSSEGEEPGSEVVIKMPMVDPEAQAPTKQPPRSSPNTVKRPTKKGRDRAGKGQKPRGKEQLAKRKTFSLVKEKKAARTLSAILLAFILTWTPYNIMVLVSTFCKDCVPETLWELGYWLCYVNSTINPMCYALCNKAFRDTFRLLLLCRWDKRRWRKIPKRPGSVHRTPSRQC

[16] = target: T14, Muscarinic M3 (Homo sapiens, UniProt P20309); assay: Eurofins SafetyScreen panel; type: binding
T14 construct: Eurofins (contract screening, SafetyScreen panel) PP223

[17] = target: T15, Neuropeptide Y Y1 (Homo sapiens, UniProt P25929); assay: Eurofins SafetyScreen panel; type: binding
T15 construct: Eurofins (contract screening, SafetyScreen panel) PP223
T15 sequence (P25929 whole entry): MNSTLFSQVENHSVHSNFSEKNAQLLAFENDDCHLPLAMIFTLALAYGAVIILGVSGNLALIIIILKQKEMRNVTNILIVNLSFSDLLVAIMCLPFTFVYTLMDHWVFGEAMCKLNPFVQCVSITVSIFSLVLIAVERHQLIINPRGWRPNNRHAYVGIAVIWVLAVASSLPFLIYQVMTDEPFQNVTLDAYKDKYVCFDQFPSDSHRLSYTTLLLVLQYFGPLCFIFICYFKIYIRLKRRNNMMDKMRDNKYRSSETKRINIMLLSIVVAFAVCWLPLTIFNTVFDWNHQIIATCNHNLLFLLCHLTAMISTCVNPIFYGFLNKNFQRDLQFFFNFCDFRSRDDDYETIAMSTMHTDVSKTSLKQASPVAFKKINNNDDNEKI

[18] = target: T16, Opiate σ1 (OP1, DOP) (Homo sapiens, UniProt P41143); assay: Eurofins SafetyScreen panel; type: binding; conditions: read-out: %inh
T16 construct: Eurofins (contract assay)

[19] = target: T17, PPARγ (Homo sapiens, UniProt P37231); assay: Eurofins SafetyScreen panel; type: binding
T17 construct: Eurofins (contract assay)

[20] = target: T18, Serotonin 5-HT4 (Cavia porcellus, UniProt O70528); assay: Eurofins SafetyScreen panel; type: binding, guinea pig
T18 construct: Eurofins (contract assay) 272000

[21] = target: T19, Dopamine Transporter (DAT) (Homo sapiens, UniProt Q01959); assay: Eurofins SafetyScreen panel; type: binding
T19 construct: Eurofins (contract assay)
T19 sequence (Q01959 whole entry): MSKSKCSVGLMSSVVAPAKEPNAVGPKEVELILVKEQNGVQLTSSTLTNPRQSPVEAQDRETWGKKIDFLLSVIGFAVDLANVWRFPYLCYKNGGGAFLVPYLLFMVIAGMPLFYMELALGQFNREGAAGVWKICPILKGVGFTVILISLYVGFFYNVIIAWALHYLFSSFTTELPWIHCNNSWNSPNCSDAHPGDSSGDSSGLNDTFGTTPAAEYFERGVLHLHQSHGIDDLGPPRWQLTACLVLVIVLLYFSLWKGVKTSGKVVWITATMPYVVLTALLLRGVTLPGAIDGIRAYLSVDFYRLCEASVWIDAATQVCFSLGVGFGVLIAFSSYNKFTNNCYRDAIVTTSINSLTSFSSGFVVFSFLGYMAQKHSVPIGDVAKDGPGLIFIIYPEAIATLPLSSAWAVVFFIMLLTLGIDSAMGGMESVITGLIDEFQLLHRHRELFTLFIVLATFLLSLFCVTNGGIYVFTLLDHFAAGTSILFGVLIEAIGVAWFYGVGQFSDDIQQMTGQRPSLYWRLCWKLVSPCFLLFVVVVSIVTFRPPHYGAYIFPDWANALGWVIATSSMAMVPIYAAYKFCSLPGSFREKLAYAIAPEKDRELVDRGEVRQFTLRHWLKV

[22] = target: h5-HT1A (Homo sapiens, UniProt P08908); conditions: 5-HT1AR
Chain of h5-HT1A (P08908 whole entry): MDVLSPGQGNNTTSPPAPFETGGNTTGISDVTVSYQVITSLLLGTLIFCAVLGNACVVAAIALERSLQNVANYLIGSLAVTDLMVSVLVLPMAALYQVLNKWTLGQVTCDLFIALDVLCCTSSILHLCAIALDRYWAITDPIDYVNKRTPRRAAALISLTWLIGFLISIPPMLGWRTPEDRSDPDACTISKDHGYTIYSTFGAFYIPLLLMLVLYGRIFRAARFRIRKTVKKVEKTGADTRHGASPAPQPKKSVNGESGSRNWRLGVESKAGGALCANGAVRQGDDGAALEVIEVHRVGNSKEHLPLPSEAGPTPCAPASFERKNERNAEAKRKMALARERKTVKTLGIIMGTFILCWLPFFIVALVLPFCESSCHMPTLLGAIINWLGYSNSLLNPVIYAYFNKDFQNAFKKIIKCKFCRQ
Description: For membrane preparation, cells after reaching 90% confluence, were washed with phosphate-buffered saline (PBS), and pelleted by centrifugation (200 × g) in PBS containing 0.1 mM EDTA and 1 mM dithiothreitol.
The total reaction volume was 200 μL. The incubation process was terminated by filtration through UniFilter-96 (PerkinElmer) plates with the FilterMate Universal Harvester (PerkinElmer, #C961962), and radioactivity retained on the filters was quantified on a MicroBeta counter for radiometric detection (PerkinElmer). […] To evaluate the level of nonspecific signal 10 μM of 5-HT for 5-HT1AR and 5-HT7R, 20 μM of mianserin for 5-HT2AR, 10 μM of methiothepine for 5-HT6R and 10 μM of haloperidol for D2LR were used. […] The acquired results were presented as the mean of at least two independent experiments.

[23] = target: Potassium Channel [hERG] (Homo sapiens, UniProt Q12809); assay: biochemical
[24] = target: CYP2C9 (Homo sapiens, UniProt P11712); assay: Cytochrome P450 inhibition (Eurofins); conditions: at 10 μM; listed as 17, 10 µM
[25] = read-out: %inh, 10 μM, additional batch

## O=S(=O)(c1cccc(F)c1)n1ccc2c(N3CCNCC3)nc3ccccc3c21 [FPPQ, 1-[(3-Fluorophenyl)sulfonyl]-4-(piperazin-1-yl)-1H-pyrrolo[3,2-c]quinoline dihydrochloride]
[1]
  inhibition at 10 µM: -13%
[2]
  inhibition at 10 µM: -1%
[3]
  inhibition at 10 µM: 6%
[4]
  inhibition at 10 µM: 34%
[5]
  inhibition at 10 µM: 24%
[6]
  IC50: 0.22 µM
  Ki: 0.11 µM
[6]; read-out: %inh, 10 nM
  inhibition at 0.01 µM: 5%
[6]; read-out: %inh, 0.1 μM
  inhibition at 0.1 µM: 32%
[6]; read-out: %inh, 1 μM
  inhibition at 1 µM: 80%
[6]; read-out: %inh, 10 μM
  inhibition at 10 µM: 97%
[6]; [25]
  inhibition at 10 µM: 98%
[7]
  inhibition at 10 µM: 0%
[8]; 10 nM
  inhibition at 0.01 µM: -2%
[8]; 0.1 μM
  inhibition at 0.1 µM: 9%
[8]; 1 μM
  inhibition at 1 µM: 48%
[8]
  inhibition at 10 µM: 78%
[8]; additional batch
  inhibition at 10 µM: 85%
[9]
  inhibition at 10 µM: 21%
[10]
  inhibition at 10 µM: 46%
[11]
  inhibition at 10 µM: 3%
[12]
  inhibition at 10 µM: -1%
[13]
  IC50: 0.46 µM
  Ki: 0.22 µM
[13]; read-out: %inh, 10 nM
  inhibition at 0.01 µM: 4%
[13]; read-out: %inh, 0.1 μM
  inhibition at 0.1 µM: 19%
[13]; read-out: %inh, 1 μM
  inhibition at 1 µM: 67%
[13]; read-out: %inh, 10 μM
  inhibition at 10 µM: 97%
[13]; [25]
  inhibition at 10 µM: 98%
[14]
  inhibition at 10 µM: 10%
[15]
  IC50: 7.89 µM
  Ki: 1.94 µM
[15]; read-out: %inh
  inhibition at 0.1 µM: 3%
  inhibition at 1 µM: 13%
  inhibition at 100 µM: 98%
[16]
  inhibition at 10 µM: 43%
[17]
  inhibition at 10 µM: 37%
[18]
  inhibition at 10 µM: 7%
[19]
  inhibition at 10 µM: 28%
[20]
  inhibition at 10 µM: 30%
[21]
  IC50: 1.37 µM
[21]; read-out: %inh, 10 nM
  inhibition at 0.01 µM: 2%
[21]; read-out: %inh, 0.1 μM
  inhibition at 0.1 µM: 6%
[21]; read-out: %inh, 1 μM
  inhibition at 1 µM: 31%
[21]; read-out: %inh, 10 μM
  inhibition at 10 µM: 101%
[21]; [25]
  inhibition at 10 µM: 98%
[22]
  Ki: 0.437 µM
[23]
  IC50: 1.15 µM
[24]
  cytochrome P450 inhibition 2C9: < 25% inh at 10 uM
